Measurements: ChEMBL document CHEMBL4507286 (2021)

Assays:
[1] = biological target: Fibroblast growth factor receptor 1 (Homo sapiens) (UniProt P11362)
[2] = biological target: Mast/stem cell growth factor receptor Kit (Homo sapiens) (UniProt P10721)
[3] = biological target: Activin receptor type-1-like (Homo sapiens) (UniProt P37023)
[4] = biological target: Mitogen-activated protein kinase kinase kinase 7 (Homo sapiens) (UniProt O43318)
[5] = biological target: Mitogen-activated protein kinase kinase kinase 15 (Homo sapiens) (UniProt Q6ZN16)
[6] = biological target: Macrophage colony-stimulating factor 1 receptor (Homo sapiens) (UniProt P07333)
[7] = biological target: STE20-like serine/threonine-protein kinase (Homo sapiens) (UniProt Q9H2G2)
[8] = biological target: Proto-oncogene tyrosine-protein kinase Src (Homo sapiens) (UniProt P12931)
[9] = biological target: Serine/threonine-protein kinase SIK1 (Homo sapiens) (UniProt P57059)
[10] = biological target: Aurora kinase A (Homo sapiens) (UniProt O14965)
[11] = biological target: Phosphatidylinositol 4,5-bisphosphate 3-kinase catalytic subunit delta isoform (Homo sapiens) (UniProt O00329)
[12] = biological target: Serine/threonine-protein kinase LATS2 (Homo sapiens) (UniProt Q9NRM7)
[13] = biological target: Casein kinase I isoform gamma-3 (Homo sapiens) (UniProt Q9Y6M4)
[14] = biological target: Tyrosine-protein kinase Yes (Homo sapiens) (UniProt P07947)
[15] = biological target: Serine/threonine-protein kinase PLK4 (Homo sapiens) (UniProt O00444)
[16] = tested on: Phosphatidylinositol 4,5-bisphosphate 3-kinase catalytic subunit alpha isoform (Homo sapiens), P42336 [I800L]
[17] = biological target: Ephrin type-A receptor 6 (Homo sapiens) (UniProt Q9UF33)
[18] = biological target: Mitogen-activated protein kinase 15 (Homo sapiens) (UniProt Q8TD08)
[19] = biological target: Leucine-rich repeat serine/threonine-protein kinase 2 (Homo sapiens) (UniProt Q5S007)
[20] = biological target: Serine/threonine-protein kinase PLK1 (Homo sapiens) (UniProt P53350)
[21] = biological target: Tyrosine-protein kinase HCK (Homo sapiens) (UniProt P08631)
[22] = biological target: Fibroblast growth factor receptor 3 (Homo sapiens) (UniProt P22607)
[23] = tested on: Tyrosine-protein kinase ABL1 (Homo sapiens), P00519 [H396P]
[24] = biological target: Ephrin type-B receptor 6 (Homo sapiens) (UniProt O15197)
[25] = biological target: cAMP-dependent protein kinase catalytic subunit PRKX (Homo sapiens) (UniProt P51817)
[26] = biological target: Testis-specific serine/threonine-protein kinase 3 (Homo sapiens) (UniProt Q96PN8)
[27] = biological target: Ribosomal protein S6 kinase alpha-4 (Homo sapiens) (UniProt O75676)
[28] = biological target: Cyclin-dependent kinase 4 (Homo sapiens) (UniProt P11802)
[29] = biological target: Phosphatidylinositol 4-kinase beta (Homo sapiens) (UniProt Q9UBF8)
[30] = tested on: Leucine-rich repeat serine/threonine-protein kinase 2 (Homo sapiens), Q5S007 [G2019S]
[31] = biological target: Macrophage colony-stimulating factor 1 receptor (Homo sapiens) (UniProt P07333); remark: listed apart in the source
[32] = biological target: Serine/threonine-protein kinase PLK3 (Homo sapiens) (UniProt Q9H4B4)
[33] = biological target: Tyrosine-protein kinase CSK (Homo sapiens) (UniProt P41240)
[34] = biological target: Serine/threonine-protein kinase 16 (Homo sapiens) (UniProt O75716)
[35] = biological target: Serine/threonine-protein kinase ICK (Homo sapiens) (UniProt Q9UPZ9)
[36] = biological target: Serine/threonine-protein kinase Nek9 (Homo sapiens) (UniProt Q8TD19)
[37] = biological target: Homeodomain-interacting protein kinase 3 (Homo sapiens) (UniProt Q9H422)
[38] = biological target: Uncharacterized serine/threonine-protein kinase SBK3 (Homo sapiens) (UniProt P0C264)
[39] = biological target: D(1A) dopamine receptor (Homo sapiens) (UniProt P21728); settings: Compound concentration 10.0 uM
[40] = biological target: Sodium-dependent dopamine transporter (Homo sapiens) (UniProt Q01959); settings: Compound concentration 10.0 uM
[41] = biological target: Tyrosine-protein kinase Fgr (Homo sapiens) (UniProt P09769)
[42] = biological target: Serine/threonine-protein kinase 32C (Homo sapiens) (UniProt Q86UX6)
[43] = biological target: Serine/threonine-protein kinase BRSK1 (Homo sapiens) (UniProt Q8TDC3)
[44] = tested on: Epidermal growth factor receptor (Homo sapiens), P00533 [L858R,T790M]
[45] = biological target: 5-hydroxytryptamine receptor 2B (Homo sapiens, UniProt P41595); settings: Compound concentration 10.0 uM
[46] = Compound concentration 1000.0 nM
[47] = Compound concentration 100.0 nM

Chain of Macrophage colony-stimulating factor 1 receptor (Homo sapiens) (P07333 whole entry): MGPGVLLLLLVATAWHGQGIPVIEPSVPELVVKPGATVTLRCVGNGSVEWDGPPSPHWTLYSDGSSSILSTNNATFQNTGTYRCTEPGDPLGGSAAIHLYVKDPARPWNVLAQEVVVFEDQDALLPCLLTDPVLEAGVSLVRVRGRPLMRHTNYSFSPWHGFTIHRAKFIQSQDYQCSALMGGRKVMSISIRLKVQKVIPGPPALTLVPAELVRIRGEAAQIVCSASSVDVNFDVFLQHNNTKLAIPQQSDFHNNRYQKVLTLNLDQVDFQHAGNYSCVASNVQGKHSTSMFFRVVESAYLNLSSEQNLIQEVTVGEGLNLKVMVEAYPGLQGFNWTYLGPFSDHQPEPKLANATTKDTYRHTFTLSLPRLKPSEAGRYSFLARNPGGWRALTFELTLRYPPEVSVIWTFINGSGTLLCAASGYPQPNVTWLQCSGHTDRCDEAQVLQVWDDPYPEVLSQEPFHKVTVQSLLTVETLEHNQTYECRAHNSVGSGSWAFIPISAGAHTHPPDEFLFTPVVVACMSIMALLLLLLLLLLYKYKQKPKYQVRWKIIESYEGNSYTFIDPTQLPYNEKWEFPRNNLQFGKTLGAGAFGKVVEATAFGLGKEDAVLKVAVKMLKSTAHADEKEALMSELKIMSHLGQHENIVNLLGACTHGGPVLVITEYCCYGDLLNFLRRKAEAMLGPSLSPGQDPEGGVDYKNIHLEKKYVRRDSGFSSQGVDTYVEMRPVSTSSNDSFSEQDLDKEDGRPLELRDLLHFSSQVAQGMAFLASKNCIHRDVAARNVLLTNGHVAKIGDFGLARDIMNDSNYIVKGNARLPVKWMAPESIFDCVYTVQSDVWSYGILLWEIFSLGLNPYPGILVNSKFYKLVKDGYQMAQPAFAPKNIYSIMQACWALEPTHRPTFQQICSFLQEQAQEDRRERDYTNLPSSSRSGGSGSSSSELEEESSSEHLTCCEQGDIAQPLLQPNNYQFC
Chain of Leucine-rich repeat serine/threonine-protein kinase 2 (Homo sapiens), Q5S007 [G2019S] (Q5S007 whole entry G2019S): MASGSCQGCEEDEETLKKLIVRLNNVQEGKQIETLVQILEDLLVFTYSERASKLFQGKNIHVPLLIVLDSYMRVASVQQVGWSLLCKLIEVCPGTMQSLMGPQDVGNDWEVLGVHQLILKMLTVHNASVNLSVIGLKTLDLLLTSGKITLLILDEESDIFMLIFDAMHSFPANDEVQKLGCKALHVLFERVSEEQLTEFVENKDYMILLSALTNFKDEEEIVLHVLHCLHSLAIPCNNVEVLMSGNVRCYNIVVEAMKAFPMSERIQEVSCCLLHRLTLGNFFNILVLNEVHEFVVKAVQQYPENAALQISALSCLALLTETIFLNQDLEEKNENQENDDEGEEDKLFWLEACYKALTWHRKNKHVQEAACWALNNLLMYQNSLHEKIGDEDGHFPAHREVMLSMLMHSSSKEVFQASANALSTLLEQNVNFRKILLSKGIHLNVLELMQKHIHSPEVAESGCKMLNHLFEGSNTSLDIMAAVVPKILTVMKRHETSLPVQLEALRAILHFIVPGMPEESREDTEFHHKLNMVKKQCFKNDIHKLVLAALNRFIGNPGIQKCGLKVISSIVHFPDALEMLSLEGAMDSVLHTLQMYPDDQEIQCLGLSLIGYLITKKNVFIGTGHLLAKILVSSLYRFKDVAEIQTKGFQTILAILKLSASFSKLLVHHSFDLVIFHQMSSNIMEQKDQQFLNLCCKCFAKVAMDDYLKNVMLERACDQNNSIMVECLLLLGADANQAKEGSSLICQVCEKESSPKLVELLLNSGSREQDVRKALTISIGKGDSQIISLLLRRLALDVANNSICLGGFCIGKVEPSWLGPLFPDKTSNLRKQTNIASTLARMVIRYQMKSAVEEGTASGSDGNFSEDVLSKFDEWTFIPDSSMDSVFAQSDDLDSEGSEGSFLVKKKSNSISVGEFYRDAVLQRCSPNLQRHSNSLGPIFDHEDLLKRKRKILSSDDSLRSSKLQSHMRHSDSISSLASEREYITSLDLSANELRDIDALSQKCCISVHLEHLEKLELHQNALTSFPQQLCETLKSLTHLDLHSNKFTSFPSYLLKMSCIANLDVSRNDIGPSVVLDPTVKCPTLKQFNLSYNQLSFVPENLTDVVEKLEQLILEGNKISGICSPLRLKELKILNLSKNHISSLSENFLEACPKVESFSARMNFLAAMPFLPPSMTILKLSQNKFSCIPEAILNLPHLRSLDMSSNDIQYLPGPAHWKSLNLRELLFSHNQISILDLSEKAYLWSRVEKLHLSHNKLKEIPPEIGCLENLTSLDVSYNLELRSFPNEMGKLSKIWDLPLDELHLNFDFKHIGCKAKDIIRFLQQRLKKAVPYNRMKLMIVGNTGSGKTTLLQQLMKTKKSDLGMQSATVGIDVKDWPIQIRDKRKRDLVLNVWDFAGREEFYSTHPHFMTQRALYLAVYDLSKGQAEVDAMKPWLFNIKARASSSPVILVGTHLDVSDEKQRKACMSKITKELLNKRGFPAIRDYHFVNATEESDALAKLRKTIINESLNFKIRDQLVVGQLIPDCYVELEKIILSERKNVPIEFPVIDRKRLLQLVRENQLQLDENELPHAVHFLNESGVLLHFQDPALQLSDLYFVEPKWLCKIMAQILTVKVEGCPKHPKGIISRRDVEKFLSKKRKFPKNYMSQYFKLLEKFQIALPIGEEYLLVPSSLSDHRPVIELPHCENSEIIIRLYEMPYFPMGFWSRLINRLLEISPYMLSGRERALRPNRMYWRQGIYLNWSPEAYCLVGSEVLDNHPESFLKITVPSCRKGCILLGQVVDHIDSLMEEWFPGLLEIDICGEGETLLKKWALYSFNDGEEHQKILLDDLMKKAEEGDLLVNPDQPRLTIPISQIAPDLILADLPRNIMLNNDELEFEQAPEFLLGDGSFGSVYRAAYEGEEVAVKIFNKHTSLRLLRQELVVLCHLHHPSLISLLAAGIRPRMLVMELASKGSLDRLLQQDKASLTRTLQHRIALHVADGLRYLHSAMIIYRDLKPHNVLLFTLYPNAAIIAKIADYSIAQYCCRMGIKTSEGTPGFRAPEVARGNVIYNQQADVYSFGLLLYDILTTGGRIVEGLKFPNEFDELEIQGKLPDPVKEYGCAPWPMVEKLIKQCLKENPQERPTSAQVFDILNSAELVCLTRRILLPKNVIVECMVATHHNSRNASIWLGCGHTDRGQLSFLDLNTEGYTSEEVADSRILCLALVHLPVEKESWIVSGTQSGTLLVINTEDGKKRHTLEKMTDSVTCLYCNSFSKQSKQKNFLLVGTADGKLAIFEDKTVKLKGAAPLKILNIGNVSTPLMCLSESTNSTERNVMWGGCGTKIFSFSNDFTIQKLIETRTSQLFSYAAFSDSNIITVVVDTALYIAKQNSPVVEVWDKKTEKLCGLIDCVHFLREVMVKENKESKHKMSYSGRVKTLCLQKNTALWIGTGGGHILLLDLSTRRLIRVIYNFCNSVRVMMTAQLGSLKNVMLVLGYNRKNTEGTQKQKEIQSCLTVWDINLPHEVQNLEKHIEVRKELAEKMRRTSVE
Chain of Mitogen-activated protein kinase 15 (Homo sapiens) (Q8TD08 whole entry): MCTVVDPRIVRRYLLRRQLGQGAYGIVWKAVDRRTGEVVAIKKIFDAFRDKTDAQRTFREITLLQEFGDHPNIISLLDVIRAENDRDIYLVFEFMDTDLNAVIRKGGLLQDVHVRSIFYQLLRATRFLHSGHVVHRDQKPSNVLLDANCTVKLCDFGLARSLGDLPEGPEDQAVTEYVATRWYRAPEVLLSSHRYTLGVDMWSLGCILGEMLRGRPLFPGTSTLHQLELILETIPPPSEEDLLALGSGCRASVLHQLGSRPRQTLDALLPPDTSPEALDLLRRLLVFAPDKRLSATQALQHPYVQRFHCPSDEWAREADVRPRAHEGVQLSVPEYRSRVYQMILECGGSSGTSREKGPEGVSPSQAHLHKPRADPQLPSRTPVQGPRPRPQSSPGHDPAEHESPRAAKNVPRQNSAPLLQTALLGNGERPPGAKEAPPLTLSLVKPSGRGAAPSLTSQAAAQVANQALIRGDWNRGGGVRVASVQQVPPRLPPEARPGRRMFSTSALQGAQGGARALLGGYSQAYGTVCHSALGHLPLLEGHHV
Chain of Sodium-dependent dopamine transporter (Homo sapiens) (Q01959 whole entry): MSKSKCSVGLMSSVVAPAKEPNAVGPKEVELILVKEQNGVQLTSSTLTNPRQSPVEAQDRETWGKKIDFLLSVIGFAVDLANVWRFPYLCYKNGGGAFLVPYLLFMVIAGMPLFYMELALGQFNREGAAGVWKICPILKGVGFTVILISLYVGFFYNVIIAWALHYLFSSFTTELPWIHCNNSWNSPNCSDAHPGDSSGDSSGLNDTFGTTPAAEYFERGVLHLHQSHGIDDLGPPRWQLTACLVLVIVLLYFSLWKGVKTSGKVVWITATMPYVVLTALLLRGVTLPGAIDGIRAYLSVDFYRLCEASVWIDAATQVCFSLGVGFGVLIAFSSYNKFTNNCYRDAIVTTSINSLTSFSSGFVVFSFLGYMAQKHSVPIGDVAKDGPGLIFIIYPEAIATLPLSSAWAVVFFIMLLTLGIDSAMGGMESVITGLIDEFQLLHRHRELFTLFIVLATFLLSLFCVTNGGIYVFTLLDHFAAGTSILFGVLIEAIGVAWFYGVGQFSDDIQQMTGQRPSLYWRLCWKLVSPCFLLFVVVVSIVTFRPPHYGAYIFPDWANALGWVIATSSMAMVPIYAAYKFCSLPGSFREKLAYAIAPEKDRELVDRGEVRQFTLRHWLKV
Chain of Uncharacterized serine/threonine-protein kinase SBK3 (Homo sapiens) (P0C264 whole entry): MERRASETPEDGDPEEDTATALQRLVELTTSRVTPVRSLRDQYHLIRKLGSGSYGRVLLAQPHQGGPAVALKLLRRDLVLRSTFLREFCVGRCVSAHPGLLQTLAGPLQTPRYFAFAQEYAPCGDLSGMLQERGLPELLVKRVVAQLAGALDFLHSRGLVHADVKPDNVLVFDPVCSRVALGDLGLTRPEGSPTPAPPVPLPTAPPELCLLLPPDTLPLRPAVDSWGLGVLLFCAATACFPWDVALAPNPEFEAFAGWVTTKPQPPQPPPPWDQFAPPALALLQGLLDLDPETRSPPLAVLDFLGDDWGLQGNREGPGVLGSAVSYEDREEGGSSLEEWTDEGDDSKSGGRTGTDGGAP
Chain of Leucine-rich repeat serine/threonine-protein kinase 2 (Homo sapiens) (Q5S007 whole entry): as the sequence (Q5S007 whole entry G2019S) above, with S2019G counted along it

SMILES: C[C@H](NC(=O)Nc1cc2[nH]ncc2c(CO)n1)c1ccccn1 [ERKi-NC]
- residual activity [1, 46]: 78%
- residual activity [2, 46]: 71.5%
- residual activity [3, 46]: 92.3%
- residual activity [4, 46]: 100%
- residual activity [5, 46]: 100%
- residual activity [6, 46]: 100%
- residual activity [7, 46]: 76%
- residual activity [8, 46]: 100%
- residual activity [9, 46]: 100%
- residual activity [10, 46]: 100%
- residual activity [11, 46]: 100%
- residual activity [12, 46]: 100%
- residual activity [13, 46]: 100%
- residual activity [14, 46]: 100%
- residual activity [15, 46]: 100%
- residual activity [16, 46]: 99.5%
- residual activity [17, 46]: 89%
- residual activity [18, 46]: 100%
- residual activity [19, 46]: 71.3%
- residual activity [20, 46]: 92.1%
- residual activity [21, 46]: 100%
- residual activity [22, 46]: 81.8%
- residual activity [23, 46]: 100%
- residual activity [24, 46]: 100%
- residual activity [25, 46]: 100%
- residual activity [26, 46]: 100%
- residual activity [27, 46]: 100%
- residual activity [28, 46]: 74.2%
- residual activity [29, 46]: 100%
- residual activity [30, 46]: 88.8%
- residual activity [31, 46]: 94.8%
- residual activity [32, 46]: 68.7%
- residual activity [33, 46]: 100%
- residual activity [34, 46]: 100%
- residual activity [35, 46]: 71.4%
- residual activity [36, 46]: 100%
- residual activity [37, 46]: 85.1%
- residual activity [38, 46]: 100%
- inhibition [39]: 4.28%
- inhibition [40]: 4.79%
- residual activity [41, 46]: 100%
- residual activity [42, 46]: 74%
- residual activity [43, 46]: 100%
- residual activity [44, 46]: 100%
- inhibition [45]: 90.9%

SMILES: C[C@@H](NC(=O)Nc1cc2[nH]ncc2c(CO)n1)c1ccccc1 [ERKi]
- residual activity [1, 47]: 94.1%
- residual activity [2, 47]: 89.5%
- residual activity [3, 47]: 90.9%
- residual activity [4, 47]: 82.6%
- residual activity [5, 47]: 100%
- residual activity [6, 47]: 89.3%
- residual activity [7, 47]: 92.6%
- residual activity [8, 47]: 94.6%
- residual activity [9, 47]: 100%
- residual activity [10, 47]: 82%
- residual activity [11, 47]: 81.9%
- residual activity [12, 47]: 29%
- residual activity [13, 47]: 87.9%
- residual activity [14, 47]: 96.9%
- residual activity [15, 47]: 71.6%
- residual activity [16, 47]: 66%
- residual activity [17, 47]: 100%
- residual activity [18, 47]: 37.1%
- residual activity [19, 47]: 94.6%
- residual activity [20, 47]: 58.4%
- residual activity [21, 47]: 94.6%
- residual activity [22, 47]: 85.4%
- residual activity [23, 47]: 84%
- residual activity [24, 47]: 75.5%
- residual activity [25, 47]: 46.1%
- residual activity [26, 47]: 91.1%
- residual activity [27, 47]: 72.5%
- residual activity [28, 47]: 86.6%
- residual activity [29, 47]: 82.1%
- residual activity [30, 47]: 82.7%
- residual activity [31, 47]: 87.3%
- residual activity [32, 47]: 89%
- residual activity [33, 47]: 77.1%
- residual activity [34, 47]: 60.3%
- residual activity [35, 47]: 80.9%
- residual activity [36, 47]: 77.5%
- residual activity [37, 47]: 96.2%
- residual activity [38, 47]: 100%
- inhibition [39]: -3.5%
- inhibition [40]: 46.5%
- residual activity [41, 47]: 100%
- residual activity [42, 47]: 100%
- residual activity [43, 47]: 88.4%
- residual activity [44, 47]: 100%
- inhibition [45]: 13.1%
